Test results taken from US20090156545A1, “Substituted Phosphate Esters of Nucleoside Phosphonates” (priority 2005, published 2009).
Like-named read-outs stand apart in the source and are kept apart here.

How the values were obtained:
Format in all cases: cell-based
Cowpox Brighton = assay: organism not typed; conditions: read-out: Cowpox, 50% effective concentration, EC50
Vaccinia WR = assay: microbe, parasite or virus in culture; conditions: read-out: Vaccinia, 50% effective concentration, EC50
HCMV AD169 = HCMV AD169 plaque reduction assay in HFF cells
MCMV = MCMV plaque reduction assay in HFF cells; conditions: read-out: MCMV, 50% effective concentration, EC50
HSV-1 [1] = assay: HSV-1 DNA reduction assay in MRC-5 cells
HSV-1 [2] = assay: HSV-1 plaque reduction assay
HSV-2 = HSV-2 plaque reduction assay
HIV-1Lai = HIV-1Lai p24 reduction assay in MT-2 cells
[3] = read-out: HCMV, 50% effective concentration, EC50
[4] = read-out: HSV-1, 50% effective concentration, EC50

CCCCCCCCCCCCCCCCCCOCCOP(=O)(O)OP(=O)(O)CO[C@H](CO)Cn1ccc(N)nc1=O [ODE-phospho-HPMPC]
EC50 (Cowpox Brighton): 540 nM | EC50 (Vaccinia WR): 320 nM | EC50 (HCMV AD169; [3]): 4 nM | EC50 (MCMV): 30 nM | EC50 (HSV-1 [1]; [4]): 0.02 nM

Nc1ccn(C[C@@H](CO)OCP(=O)(O)O)c(=O)n1 [HPMPC, (S)-9-[3-hydroxy-2-(phosphonomethoxy)-propyl]cytosine, reference compound]
EC50 (Cowpox Brighton; HFF): 42000 nM | EC50 (Vaccinia WR; Orthopoxvirus vaccinia, HFF): 31000 nM | EC50 (HCMV AD169; Human betaherpesvirus 5, read-out: HCMV, 50% effective concentration, EC50): 1200 nM | EC50 (MCMV): 40 nM | EC50 (HSV-1 [1]; Human alphaherpesvirus 1, MRC5, read-out: HSV-1, 50% effective concentration, EC50): 3300 nM | EC50 (HSV-1 [2]; Human alphaherpesvirus 1, read-out: HSV-1, 50% effective concentration, EC50): 15000 nM | EC50 (HSV-2; Human alphaherpesvirus 2, read-out: HSV-2, 50% effective concentration, EC50): 10500 nM

(2-(6amino-9H-purin-9-yl)ethoxy)methylphosphonic(3-hexadecyloxy)propylphosphonic)anhydride [HDP-phospho-ADV]
EC50 (HIV-1Lai; read-out: HIV-1, 50% effective concentration, EC50): 9 nM

(1-(4-aminooxopyrimidin-1(2H)-yl)-3-hydroxypropan-2-yloxy)methylphosphonic(3-hexadecyloxy)propylphosphoric) anhydride [HDP-phospho-HPMPC]
EC50 (Cowpox Brighton): 3900 nM | EC50 (Vaccinia WR): 2800 nM | EC50 (HCMV AD169; [3]): 100 nM | EC50 (MCMV): 350 nM | EC50 (HSV-1 [1]; [4]): 60 nM | EC50 (HSV-1 [2]; [4]): 130 nM | EC50 (HSV-2; read-out: HSV-2, 50% effective concentration, EC50): 300 nM

Nc1ncnc2c1ncn2CCOCP(=O)(O)O [ADV, phosphonomethoxyethyadenine, reference compound]
EC50 (HIV-1Lai; Human immunodeficiency virus 1, MT2, read-out: HIV-1, 50% effective concentration, EC50): 1300 nM
